Consider 3 molecules from PMC9862096, “Interaction of a Homologous Series of Amphiphiles with P-glycoprotein in a Membrane Environment—Contributions of Polar and Non-Polar Interactions” (Pharmaceutics, 2023).

One data set concerns the target T1, mP–gp (Mus musculus, UniProt P21447).
T1 construct: made in house; host or cells: High-Five insect cells (Invitrogen), recombinant baculovirus; total membrane vesicles
The data set is described as follows: Photolabeling of P–gp with [125I]-IAAP / IAAP displacement. The format is binding. The settings on record: for Ki: Equation (S2), total concentrations, native membranes 1.0 mg/mL, read-out: dissociation constant, competitive inhibition of IAAP binding. The protocol: The native membranes of High-Five insect cells expressing mP–gp (1.0 mg/mL) were incubated at room temperature with the indicated concentrations of the inhibitor for 5 min. IAAP (5 to 7 nM) was later added, and the reaction mixture was further incubated for 5 min under subdued light. The samples were photocross-linked with 366 nm UV light for 10 min at room temperature, followed by electrophoresis and quantification, as described previously. The raw data are shown in the Supplementary Information (Figure S4). The results were first analyzed with the usual equation, considering the total concentration of IAAP and NBD amphiphile, as well as competitive inhibition of IAAP binding, see Supplementary Information (Equation (S2)). The dissociation constant considered for IAAP was taken from the literature, 412 nM [15]. The results were also analyzed with a formalism derived in this manuscript considering the distribution of the NBD amphiphile in the distinct environments (aqueous phase, lipid bilayer, and P–gp), the distribution of IAAP between the aqueous media and P–gp, and several equal and independent binding sites in P–gp’s binding pocket, Equation (10).
In this assay, in addition to the binding of the NBD amphiphiles to P–gp binding pocket, it is also necessary to consider the binding of IAAP. The concentration of IAAP used in the assay (5 nM) is several orders of magnitude smaller than that of the amphiphiles in study, and it is also smaller than the total concentration of P–gp (59 nM). Therefore, Equation (8) may be used to calculate the concentration of free ligand and protein. The fraction of IAAP bound to P–gp may then be calculated from Equation (10), where P^* is the concentration of P–gp available for IAAP binding. (10) IP/IT=−b−b^2−4ac/2aa=1; b=−1+KdIAAP/IT+P^*/IT; c=P^*/IT
The number of binding sites in P–gp binding pocket was varied from 1 to 5, and three situations were considered in the analysis: (i) full inhibition of IAAP binding when at least one NBD amphiphile is in the P–gp binding pocket ( i≥1 ), corresponding to P^*=P; (ii) inhibition of IAAP binding only when P–gp is fully saturated ( i=n ), corresponding to P^*=P+∑i=1n−1PLi; and (iii) an intermediate situation with IAAP displacement for i≥n−1 , corresponding to P^*=P+∑i=1n−2PLi .
The displacement of IAAP from P–gp binding pocket was calculated from Equation (11), where IP0 is the concentration of IAAP bound to P–gp in the absence of the NBD amphiphiles. (11) IAAP displacement %=100IP0−IP/IP0

Data set [1] in a line: Calculation of local concentrations of the amphiphiles in membrane and aqueous medium from partition coefficients. The settings on record: for fraction associated with the lipid bilayer of the native membrane: 0.107 mg of protein per mL; for concentration associated with the membrane: total concentration 60 µM; for fraction associated with the membranes: IAAP displacement conditions, 1 mg of protein per mL; for fraction of amphiphile in the membrane associated with proteins: low amphiphile concentrations, away from saturation; for concentration in the aqueous phase: total amphiphile 50 µM, partition to native membranes. The text has this: A major limitation of the models used to analyze the effects on P–gp’s ATPase activity and IAAP displacement is the use of global concentrations. Interaction of the amphiphiles with P–gp is considered to occur from the membrane and, therefore, what is relevant is the amphiphile concentration in the lipid bilayer where P–gp is embedded. The importance of using local concentration in the analysis of the interaction of small molecules with membrane proteins has been pointed out before (e.g., [33, 35, 37, 46, 84, 85]), but, unfortunately, it is still overlooked. The local concentrations may be calculated from the partition coefficient of the amphiphiles between the aqueous media and the model membranes with the relevant lipid composition. […] An intermediate affinity is obtained for NBD–LysoMPE in spite of its longer aliphatic chain. This is due to its bigger and much polar (charged) head group. From the partition coefficients one may calculate the local concentration of amphiphile in the membrane for a given total concentration of amphiphile. At the concentration of native membranes used in the ATPase assays (0.107 mg of protein per mL), 2% of the NBD–C4 is associated with the lipid bilayer of the native membrane (see Supplementary Information, Section S10 for details). As expected, for the more lipophilic amphiphiles, the fraction associated with the lipid bilayer increases, being 53% for NBD–C8 and 13% for NBD–LysoMPE. In the IAAP displacement experiments, the amount of native membranes is almost 10 times higher (1 mg of protein per mL), leading to 18% of NBD–C4 associated with the membranes, and 91% and 58% for the case of NBD–C8 and NBD–LysoMPE, respectively.
S10 – Calculation of the local concentration of the amphiphiles in the membrane and in the […]
The concentration of phospholipids (PL) in a solution containing native membranes is calculated from the concentration of protein and the ratio of PLs to prot eins (0.57 g PL/g P , average PL molar mass of 750 g/mol). The volume of the lipid bilayer (VLb) is then calculated considering a density of 1 g/cm3 for the phospholipids.
Typical values for the conditions of the ATPase activity assays are given be low:
The volume occupied by proteins in the membrane (VP) was calculated considering a density of 1.2 g/cm3 (being 8.9 × 10‐5 × VT, and the total volume of native membranes is 1.5 × 10‐4 × VT.
The IAAP displacement assay was performed with a protein concentration of 1 g/L, leading to proportionally higher volumes of the lipid bilayer and proteins.
Knowing the partition coefficients of the ligand one may calculate the fractions in each medium: […]
The fraction of amphiphile in the membrane (lipid bilayer plus membrane proteins), is given by:
MLbP PLKVKV KVWL→→ →b WP WM+ fffVK VK VVK VK VLLL WL=+= =bPP PM , WP L++ ++→→ →→b WP WLbP PWP Lb WPbP P where WMK → is the partition coeff icient obtained experimentally between the aqueous media P and the native membranes.
The above equations are only valid if the system is away from saturation (at low concentrations of amphiphiles relative to the binding agents). At relatively high amphiphile concentrations, the proteins may become saturated, leading to a decrease in the apparent partition coefficient and to an increase in the relative fraction of amphiphile associated with the lipid bilayer.
From the above equations one may calculate directly the concentration of amphiphile in each […]
To evaluate if the aqueous medium is saturated, this concentration sho uld be co mpared with the ligand critical aggregation concentration. P ossible perturbation of the lipid bilayer is best evaluated from the mo la r ratio of lipids to ligand bound (PL:L)

For data set [2] the following is noted: cited from earlier work.

T1 sequence (P21447 whole entry): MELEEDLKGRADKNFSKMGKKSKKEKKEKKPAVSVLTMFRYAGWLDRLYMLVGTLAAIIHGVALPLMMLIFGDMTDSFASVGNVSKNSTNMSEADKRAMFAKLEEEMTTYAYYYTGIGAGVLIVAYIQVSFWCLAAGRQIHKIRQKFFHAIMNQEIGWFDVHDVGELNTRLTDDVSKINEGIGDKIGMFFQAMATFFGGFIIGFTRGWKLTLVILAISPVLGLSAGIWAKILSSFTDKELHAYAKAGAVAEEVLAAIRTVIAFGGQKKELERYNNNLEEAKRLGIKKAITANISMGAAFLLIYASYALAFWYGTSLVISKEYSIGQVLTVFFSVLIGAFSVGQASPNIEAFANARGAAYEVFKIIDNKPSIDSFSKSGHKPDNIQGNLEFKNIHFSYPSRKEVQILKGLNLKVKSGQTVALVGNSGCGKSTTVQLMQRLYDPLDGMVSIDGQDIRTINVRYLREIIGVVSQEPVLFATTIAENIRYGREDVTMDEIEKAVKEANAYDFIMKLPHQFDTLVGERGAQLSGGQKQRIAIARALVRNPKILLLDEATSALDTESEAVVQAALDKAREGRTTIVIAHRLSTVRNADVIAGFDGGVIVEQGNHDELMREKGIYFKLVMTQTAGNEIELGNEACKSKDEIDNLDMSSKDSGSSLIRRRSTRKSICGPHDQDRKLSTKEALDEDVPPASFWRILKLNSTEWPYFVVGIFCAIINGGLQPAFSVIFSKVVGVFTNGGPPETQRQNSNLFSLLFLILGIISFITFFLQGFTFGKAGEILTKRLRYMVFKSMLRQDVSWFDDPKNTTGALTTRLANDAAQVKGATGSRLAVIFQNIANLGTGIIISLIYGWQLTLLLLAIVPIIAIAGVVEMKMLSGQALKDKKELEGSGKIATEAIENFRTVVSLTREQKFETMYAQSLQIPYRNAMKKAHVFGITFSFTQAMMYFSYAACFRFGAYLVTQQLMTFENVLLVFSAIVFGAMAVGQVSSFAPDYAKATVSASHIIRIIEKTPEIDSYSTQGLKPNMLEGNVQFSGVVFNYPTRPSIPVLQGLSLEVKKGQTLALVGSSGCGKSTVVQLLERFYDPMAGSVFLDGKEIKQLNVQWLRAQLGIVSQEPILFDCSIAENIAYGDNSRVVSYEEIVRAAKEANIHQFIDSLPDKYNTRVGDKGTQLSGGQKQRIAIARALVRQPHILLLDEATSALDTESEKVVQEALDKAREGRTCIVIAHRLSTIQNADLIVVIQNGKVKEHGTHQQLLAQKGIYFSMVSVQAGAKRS

On to `CCCCNc1ccc([N+](=O)[O-])c2nonc12` [NBD–C4], for which the Ki at mP–gp came to 14 µM. Also, the “number of binding sites n giving agreement between the two estimates of the partition coefficient” value on mP–gp (re-analysis of IAAP displacement, IAAP displaced for i ≥ n−1) was 5. In data set [1] (ATPase assay conditions), the “fraction associated with the lipid bilayer of the native membrane” value (“fraction associated … of the native membrane” for short) is listed as 2% and the “concentration associated with the membrane” value is reported as 1.4 µM. For the same molecule, the “concentration associated with the membrane” value in data set [1] (IAAP assay conditions (membrane 10-fold higher)) was 11 µM. Further, in data set [1], the “fraction associated with the membranes” value was 18% and the “fraction of amphiphile in the membrane associated with proteins” value is 72%.
As for `CCCCCCCCNc1ccc([N+](=O)[O-])c2nonc12` [NBD–C8], the Ki at mP–gp is 4 µM. Further, in data set [1] (ATPase assay conditions), the “fraction associated … of the native membrane” value is 53% and the “concentration in the aqueous phase” value was 21 µM. Further, the “concentration in the aqueous phase” value in data set [1] (IAAP assay conditions) is 4 µM. Also, in data set [1], the “fraction associated with the membranes” value is reported as 91% and the “fraction of amphiphile in the membrane associated with proteins” value is on record as 15%. For the same molecule, the “time for equilibration between both membrane leaflets (translocation)” value in data set [2] (Section 3.4 and ref 77) is reported as “within a few seconds”.
Regarding `CCCCCCCCCCCCCC(=O)OCC(O)COP(=O)(O)OCCNc1ccc([N+](=O)[O-])c2nonc12` (centres unmarked) [NBD–LysoMPE], the Ki at mP–gp was 23 µM. For the same molecule, in data set [1] (ATPase assay conditions), the “fraction associated … of the native membrane” value is 13% and the “concentration in the aqueous phase” value is reported as 12 µM. Also, the “concentration in the aqueous phase” value in data set [1] (IAAP assay conditions) is given as 2 µM. The “fraction associated with the membranes” value in data set [1] is 58%. The “characteristic time of translocation between membrane leaflets” value in data set [2] is given as “several hours”.
